SMILES strings stand for the structures. Residues, ends and D or L forms follow the SMILES beside them. *: point of attachment. Boc = CC(C)(C)OC(=O)*

Results on 88 compounds are retold here after a melting point compilation (Tetko et al.; mined from patent text by program, amines drawn as free bases though some values may be those of a salt).

With `O=C1CCC(N2Cc3c(OCc4cnc5ccccc5c4)cccc3C2=O)C(=O)N1` (stereo not drawn), the melting point was 270 to 273 °C.

As to `CC(=O)N(C(C)=O)c1c(Cl)c(C)nn1C(CCN1C(=O)c2ccccc2C1=O)=NOS(=O)(=O)c1ccc(C)cc1`, the melting point was in the range of 143 to 147 °C.

Consider `CC(=O)Nc1ccc(C2=NNC(=S)NC2C)cc1` (stereo not drawn), for which the melting point is 222 to 226 °C.

On to `CNS(=O)(=O)c1sccc1CCl`, for which the melting point lay in the range of 52 to 53 °C.

For `O=c1[nH]c2c3ccccc3c(=CO)c2n2ccnc12`, the melting point was determined as 290 °C.

In turn, `COCC(=O)N[C@H]1CC[C@H](CCN2CCN(c3nccc4c3OCC4)CC2)CC1` displayed a melting point of 126 °C.

In turn, `CCC(CC)(CC(=O)Nc1cccc(OCc2ccc3ccc(OCc4ccccc4)cc3n2)c1)C(=O)O` showed a melting point of 89 to 95 °C.

On to `Cc1cc(=O)c2cc(NC(=O)C(=O)O)ccc2s1`, for which the melting point is 238 to 240 °C.

`OCc1c(F)c(F)c(Br)c(F)c1F` had a melting point of 60 to 62 °C.

`N#Cc1cnn2c1N(C(=O)CCl)CCC2c1cccc(C(F)(F)F)c1` (stereo not drawn) gave a melting point of 157 to 159 °C.

For `CC#CCOc1ccc(S(=O)(=O)C(C(=O)NO)c2ccc(Br)cc2)cc1` (stereo not drawn), the melting point turned out to be 187 °C.

Regarding `O=C1OC(CO)CN1c1ccc(N2CC3CSCC3C2)c(F)c1` (stereo not drawn), the melting point was in the range of 165 to 167 °C.

Compound `CN(C)c1ccc(NC(=O)N(CC2CCCC(CN(C(=O)Nc3ccc(N(C)C)cc3)C3CC4CCC3C4)C2)C2CC3CCC2C3)cc1` (stereo not drawn) yielded a melting point of 110 to 115 °C.

In turn, `COc1ccc(-c2nc(NC3=NCCN3)sc2-c2ccc(OC)cc2)cc1` had a melting point of 211 to 214 °C.

`CCN1CCC(CC(=O)NOC(C)(C)C)(S(=O)(=O)c2ccc(Oc3ccccc3)cc2)CC1` returned a melting point of 152 to 155 °C.

For the compound `O=C(O)c1cn(C2CC2)c2c(F)c(N3CCNCC3)c(F)c(F)c2c1=O`, the melting point was 208 to 213 °C.

As to `CN(C)CCNC1=CC(=O)c2oc(-c3cc(F)c(F)c(F)c3)nc2C1=O`, the melting point was in the range of 200 to 201 °C.

On to `CCCCCCCCCCCCCCCCCCOC(=O)CBr`, for which the melting point lay within 37 to 40 °C.

`BrCc1noc2ccccc12`: the melting point was 60 to 62 °C.

For `CC(C)CNCc1cnc2[nH]c(-c3cc(OCc4ccccc4)ccc3OC(C)C)nc2c1`, the melting point was in the range of 101 to 103 °C.

For `O=[N+]([O-])c1ccccc1SN1CCN(C2CC2)CC1`, the melting point is 100 to 102 °C.

`CC(C)[C@H](NC(=O)NCc1cccnc1)C(=O)NC(Cc1ccccc1)C(O)C(Cc1ccccc1)NC(=O)[C@@H](NC(=O)OCc1ccccc1)C(C)C` (stereo partly drawn) returned a melting point of 205 to 206 °C.

`C/C(=C\c1ccc(C2(C)OCCO2)cc1)c1ccc2c(c1)C(C)(C)CCC2(C)C` yielded a melting point of 122 to 123 °C.

The compound `C[C@H]1CCCC[C@H]1Nc1c(C(N)=O)cnn2cccc12` had a melting point of 155 °C.

In turn, `COc1ccc2c(C(=S)N(C)CC(=O)O)cccc2c1SC(F)(F)F` had a melting point of 168 to 169 °C.

In turn, `O=C(c1ccccc1F)c1cc(Cl)ccc1CSc1ccccc1` returned a melting point of 81 to 82 °C.

Consider `O=c1[nH]c2ccc(Cl)cc2n1C1CCCCC1`, for which the melting point is 206 to 208 °C.

`O=C1NC(=O)c2c1c(-c1ccccc1)cc1c2c2cc(O)ccc2n1CC(O)CO` (stereo not drawn): the melting point lay in the range of 290 to 295 °C.

`CON=C(C)c1ccc(Nc2nc3ccccc3c3occc23)cc1` returned a melting point of 222 to 223 °C.

Take `CN1CCN(c2ccc(Br)cc2)CC1`: the melting point was in the range of 78 to 80 °C.

As for `COc1ccc(CON(CCCBr)S(=O)(=O)c2ccc(C)cc2)cc1`, the melting point was 89.5 to 91.5 °C.

`CCOC(=O)CCNc1ncccc1NC(=O)c1cccc(Cl)c1` registered a melting point of 111 to 112 °C.

With `Cc1cc(OS(=O)(=O)C(F)(F)F)ccc1-c1cc(C(F)(F)F)nn1-c1ccc(S(C)(=O)=O)cc1`, the melting point came out at 175 °C.

For `CCCCCCCCCCNC(=O)C=C(c1ccccc1)c1ccc([N+](=O)[O-])cc1`, the melting point lay within 91 to 93 °C.

As to `CC(C)CC(N)C(=O)NC(CCCCNC(=O)OC(C)(C)C)C(=O)O` (stereo not drawn) (H-Leu-Lys(Boc)-OH; configuration not given here), the melting point lay within 142 to 143 °C.

The compound `CCCCCCCCCCCCCC(=O)NN` registered a melting point of 107 to 111 °C.

`O=c1c2cccnc2c(-c2cccc([N+](=O)[O-])c2)nn1-c1ccccc1` came in with a melting point of 167 °C.

For the compound `CC12CCC(=O)C=C1CCC1C2CCC2(C)C(C(=O)C3CCCCC3)CCC12` (stereo not drawn), the melting point lay within 159 to 161 °C.

Turning to `CC(C)(Oc1ccc(OCc2cnc(-c3ccc(C(F)(F)F)cc3)nc2C2CC2)c(F)c1)C(=O)O`, the melting point was 178 °C.

Compound `CSC(=S)C1(c2ccccn2)CCCS1` (stereo not drawn) returned a melting point of 64 °C.

`Cc1c2n(c3ccccc13)C(=O)C(CO)(Cc1ncn(C(c3ccccc3)(c3ccccc3)c3ccccc3)c1C)CC2` (stereo not drawn) came in with a melting point of 85 to 88 °C.

Take `Nc1nc(NCCC2CCC3(CC2)OCCO3)nc2c1ncn2C1OC(CO)C(O)C1O` (stereo not drawn): the melting point fell in the range of 133 to 137 °C.

Turning to `CC(=O)OCCCOc1cccc2cc(C#N)c(=O)oc12`, the melting point fell in the range of 132 to 135 °C.

`CCOC(=O)CC[C@H](NC(=O)c1ccc(CCc2cnc3nc(NC(C)=O)nc(O)c3c2)cc1)C(=O)OCC` showed a melting point greater than 200 °C.

In turn, `O=C(Nc1ccc(Br)c2ccccc12)c1cc(F)cc(N2CCOCC2)c1` displayed a melting point of 187 to 189 °C.

On to `Cc1cc(C(C)(C)C)cc(CN)c1S`, for which the melting point fell in the range of 127 to 131 °C.

As to `COC(=O)c1sc(CBr)cc1NC(=O)Nc1ccc(C)cc1`, the melting point lay in the range of 157 to 158 °C.

In the case of `CNc1nnc(SCc2ccccc2)s1`, the melting point was 87 to 89 °C.

Consider `CCCCCCOc1ccc(C(=O)O)cc1Cl`, for which the melting point was 140 °C.

`CS(=O)(=O)Nc1ccc(C(N)=NO)cc1Oc1ccc(F)cc1F` showed a melting point of 174 to 175 °C.

As to `ClCc1coc(-c2ccc3ccccc3c2)n1`, the melting point fell in the range of 116 to 117 °C.

Regarding `Cc1cc(C(=O)CBr)cn1S(=O)(=O)c1ccccc1`, the melting point lay within 86 to 88 °C.

Compound `O=C1CC2CCCC3(C2)c2cccn2CCN13` (stereo not drawn) registered a melting point of 130 to 132 °C.

As to `Cc1c(C(=O)O)cnn1-c1ccc(F)cc1F`, the melting point lay in the range of 183 to 184 °C.

Take `CN(C)C1(c2cccc(F)c2)CCC(=O)CC1`: the melting point is 83 to 88 °C.

As for `N#CCSc1nc2ccc(Cl)nc2s1`, the melting point is 112 to 114 °C.

Compound `Cc1c(-c2ccccc2)c(N2CC[C@H](N(C)C)C2)c2oc(-c3ccccc3N)nc2c1C#N` displayed a melting point of 259 to 263 °C.

Consider `COc1ccc(NC(=O)OCCCl)c(OC)c1NC(=O)OCCCl`, for which the melting point came to 105 °C.

`O=C1Cn2nccc2-c2ccccc2N1` had a melting point of 236 to 240 °C.

In the case of `CCOC(=O)c1nc2ccc(CO)cc2n1OC`, the melting point was determined as 110 °C.

In turn, `CCC1(C2CCN(c3ncnc4cc(OC)c(OC)cc34)CC2)CO1` (stereo not drawn) had a melting point of 138 to 139 °C.

`OC1(c2ccc(C3OCCO3)cc2)CCCCC1` displayed a melting point of 95 to 97 °C.

As for `CCOC(=O)c1c(Cn2cncn2)nc2cc(OC)c(O)cc2c1-c1ccc(O)c(O)c1`, the melting point lay in the range of 264 to 266 °C.

Regarding `CCOC(O)C(F)(F)C(F)(F)C(F)(F)C(F)(F)C(O)OCC` (stereo not drawn), the melting point was 110 to 111 °C.

For `COCC1=C(C(=O)OC)C(c2ccccc2Cl)C(C(=O)OC)=C(COC)N1`, the melting point fell in the range of 137 to 138 °C.

`CCOc1nn(-c2ccc(C(F)(F)F)cn2)cc1CCCOc1ccc(Cl)cc1CC(=O)O` yielded a melting point of 130 to 131 °C.

The compound `COc1ccc(-c2cn3ccccc3n2)cc1` came in with a melting point of 131 to 134 °C.

For `CC1(C)[C@@H](CS(=O)(=O)c2ccc(S(C)(=O)=O)cc2)CC[C@@]1(C)NCC(=O)N1C[C@@H](F)C[C@H]1C#N`, the melting point was in the range of 163 to 166 °C.

Consider `OCCCc1nc(COc2ccc(CCCn3ccnc3)cc2)co1`, for which the melting point is 63 to 64 °C.

`O=C(NCCCCCC(=O)c1ncco1)c1cc2ccccc2[nH]1` had a melting point of 176 to 179 °C.

With `COc1cc(C(=O)n2c3c(c4ccccc42)CC(C(=O)O)CC3)cc(OC)c1OC` (stereo not drawn), the melting point lay in the range of 234 to 236 °C.

`CC(=O)N(C)CCc1ccc(C=CC(=O)O)cc1` displayed a melting point of 157 to 158 °C.

As to `N#Cc1ccc(COc2ccc(C(=O)NC[C@@H](C(=O)NO)N3CCCCC3)cc2)cc1`, the melting point is 134 °C.

`O=C1Nc2cccnc2Nc2ccccc21` showed a melting point of 278 to 280 °C.

Regarding `Nc1nccc2[nH]cnc12`, the melting point fell in the range of 260 to 262 °C.

In the case of `Nc1ncnc2c1ncn2C1CC(O)(C(=O)c2cccc(C(F)(F)F)c2)C(COC(=O)c2cccc(C(F)(F)F)c2)O1` (stereo not drawn), the melting point came out at 160 °C.

In the case of `COc1ccc2sc(-c3ccc(OCCN4CCCC4)cc3)c(C(=O)c3ccc(OC4CCCCC4N4CCCCC4)cc3)c2c1` (stereo not drawn), the melting point was in the range of 63 to 66 °C.

For `CCC(CC)(CC(=O)Nc1cccc(/C=C/c2nc(C3CCCC3)cs2)c1)C(=O)O`, the melting point is 172 to 174 °C.

`CCCCC1(N(C)C)CCC(c2[nH]c3ccc(F)cc3c2C)(c2[nH]c3ccccc3c2CCNC(=O)Nc2ccccc2)CC1` (stereo not drawn) came in with a melting point of 127 to 132 °C.

The compound `CC(C)(C)OC(=O)CN(C(=O)CNC(=O)Nc1cccc(-c2nnn[nH]2)c1)c1ccccc1C(=O)c1ccccc1` came in with a melting point of 163 to 175 °C.

For `CCCc1nn(-c2ccc(C(F)(F)F)cn2)cc1CCCOc1c(C#N)cccc1CC(=O)O`, the melting point is 146 to 147 °C.

For the compound `Cc1cc(NC(=O)c2cc(F)cc(N(C3CN(C(c4ccc(Cl)cc4)c4ccc(Cl)cc4)C3)S(C)(=O)=O)c2)no1`, the melting point was 222 to 224 °C.

`CC1CCN(c2ccc([N+](=O)[O-])cc2C(=O)c2ccc(Br)cc2)CC1` came in with a melting point of 142 °C.

For the compound `Cc1ccccc1Oc1cccc2c1OC(=O)CC2`, the melting point fell in the range of 80 to 82 °C.

Regarding `O=C(Nc1cc2ncc(CN3CCCC3)cc2cc1F)c1ccc(Br)cc1`, the melting point is 119 to 121 °C.

For `COC(=O)c1cccc(C=NO)c1`, the melting point is 107 to 108 °C.

For the compound `CN(C)C1(Cc2ccccc2)CCC(=O)CC1`, the melting point fell in the range of 80 to 84 °C.

Compound `OCC1=Cc2cccc(OCc3ccccc3)c2CC1` yielded a melting point of 59 to 61 °C.

A word on the melting point: it is the temperature of the solid-liquid transition.
